Literature values in patent publication US11471437B2, “Compositions and methods for treating cannabinoid hyperemesis syndrome with a cannabinoid receptor antagonist” (Opiant Pharmaceuticals, Inc., priority 2019, dated 2022).

Key:
[1] = target: T1, CB1 receptor (Homo sapiens, UniProt P21554); design: host or cells: human volunteers (in vivo); conditions: oral administration, normal volunteers; cited from earlier work
[2] = oral formulation for obesity and smoking cessation; cited from earlier work
[3] = cited from earlier work
[4] = target: T1, CB1 receptor; conditions: cited from earlier work

T1 sequence (P21554 whole entry): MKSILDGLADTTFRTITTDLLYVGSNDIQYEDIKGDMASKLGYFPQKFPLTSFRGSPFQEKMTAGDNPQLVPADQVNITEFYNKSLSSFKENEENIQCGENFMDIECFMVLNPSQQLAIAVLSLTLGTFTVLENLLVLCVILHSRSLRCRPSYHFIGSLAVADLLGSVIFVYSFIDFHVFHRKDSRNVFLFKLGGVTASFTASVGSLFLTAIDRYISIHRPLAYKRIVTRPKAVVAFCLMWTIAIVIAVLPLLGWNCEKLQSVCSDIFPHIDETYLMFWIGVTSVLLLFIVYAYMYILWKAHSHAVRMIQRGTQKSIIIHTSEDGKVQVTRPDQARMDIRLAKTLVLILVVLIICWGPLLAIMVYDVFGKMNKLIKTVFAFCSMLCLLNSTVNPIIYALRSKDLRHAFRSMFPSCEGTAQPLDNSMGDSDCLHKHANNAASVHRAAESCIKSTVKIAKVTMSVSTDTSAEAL

SMILES	Prevention (block) of pharmacological effects of smoked or inhaled THC [1]	Side effects [2]	log P [3]	Potency and selectivity for CB1 [4]
CCc1c(C(=O)NN2CCCCC2)nn(-c2ccc(Cl)cc2Cl)c1-c1ccc(Br)cc1 [surinabant]	can prevent (that is, block) some of the pharmacological effects of smoked or inhaled THC	–	–	–
Cc1c(C(=O)NN2CCCCC2)nn(-c2ccc(Cl)cc2Cl)c1-c1ccc(Cl)cc1 [Rimonabant, 5-(4-chlorophenyl)-1-(2,4-dichloro-phenyl)-4-methyl-N-(piperidin-1-yl)-1H-pyrazole-3-carboxamide]	–	concerning side effects including psychiatric effects such as depression and mood alterations	–	–
CS(=O)(=O)N(c1cc(F)cc(F)c1)C1CN(C(c2ccc(Cl)cc2)c2ccc(Cl)cc2)C1 (racemic) [drinabant, (±)-N-{1-[bis(4-chlorophenyl)methyl]-3-azetidinyl}-N-(3,5-difluorophenyl)methanesulfonamide]	can prevent (that is, block) some of the pharmacological effects of smoked or inhaled THC	–	high	potent and selective for CB1
